How the values were obtained:
[1] = target: T1, E. granulosus PSC Gp (EgGps: EgGp1 and EgGp2); test: glycogen degradation coupled to phosphoglucomutase and glucose-6-phosphate dehydrogenase, NADPH at […] nm; type: biochemical, Echinococcus granulosus; conditions: protoscolex homogenate; 2 mg/ml glycogen, 1 mM AMP, 5 mM MgCl2, Tris-HCl, 25 °C; 2 min pre-incubation; read-out: IC50/LC50 (μM) / Gp / E. granulosus PSC
T1 construct: native enzyme in protoscolex homogenate, not purified; band at 96 kD; MN562583 = EgGp1, MN562584 = EgGp2; EgrG_000501500.1 is printed for Gp without saying which gene

[2] = target: T2, Rabbit muscle Gp (recombinant rabbit Gp) (Oryctolagus cuniculus, UniProt P00489); test: as above; type: biochemical; conditions: read-out: IC50/LC50 (μM) / Gp / Rabbit muscle
T2 construct: gene PYGM; called recombinant rabbit Gp in the methods
T2 sequence (P00489 2-843): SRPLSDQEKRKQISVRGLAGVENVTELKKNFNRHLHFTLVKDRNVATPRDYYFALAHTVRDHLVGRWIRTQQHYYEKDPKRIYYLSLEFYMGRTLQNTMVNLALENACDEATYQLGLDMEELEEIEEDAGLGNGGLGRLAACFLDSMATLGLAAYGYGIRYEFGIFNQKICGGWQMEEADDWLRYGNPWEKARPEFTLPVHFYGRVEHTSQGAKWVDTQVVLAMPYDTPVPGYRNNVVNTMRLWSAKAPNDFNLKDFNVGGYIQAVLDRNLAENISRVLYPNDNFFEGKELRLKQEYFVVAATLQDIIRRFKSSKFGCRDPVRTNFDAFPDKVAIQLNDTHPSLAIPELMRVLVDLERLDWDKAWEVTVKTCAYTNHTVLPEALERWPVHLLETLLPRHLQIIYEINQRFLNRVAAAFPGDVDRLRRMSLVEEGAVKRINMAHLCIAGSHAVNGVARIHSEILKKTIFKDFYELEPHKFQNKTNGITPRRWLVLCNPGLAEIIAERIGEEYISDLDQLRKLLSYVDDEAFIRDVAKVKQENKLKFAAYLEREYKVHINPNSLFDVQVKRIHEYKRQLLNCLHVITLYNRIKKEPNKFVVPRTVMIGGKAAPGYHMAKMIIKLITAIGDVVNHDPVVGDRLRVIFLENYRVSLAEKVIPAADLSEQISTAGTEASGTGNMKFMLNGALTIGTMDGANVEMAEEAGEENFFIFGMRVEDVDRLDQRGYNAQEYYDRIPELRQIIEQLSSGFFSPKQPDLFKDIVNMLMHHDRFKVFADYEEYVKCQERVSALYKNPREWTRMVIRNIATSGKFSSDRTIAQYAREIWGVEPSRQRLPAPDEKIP

For OC(c1cc(C(F)(F)F)nc2c(C(F)(F)F)cccc12)C1CCCCN1 (stereo not shown) [MEF, mefloquine], the IC50 [1] was 128 µM and the IC50 [2] was > 438 µM.

For C[C@H]1[C@H](C)CC[C@]2(C(=O)O)CC[C@]3(C)C(=CC[C@@H]4[C@@]5(C)CC[C@H](O)C(C)(C)[C@@H]5CC[C@]43C)[C@H]12 [UA, ursolic acid], the IC50 [1] was > 438 µM and the IC50 [2] was 5.47 µM.

Reference: article PMC7719768, “Glycogen Phosphorylase: A Drug Target of Amino Alcohols in Echinococcus granulosus, Predicted by a Computer-Aided Method” (Frontiers in Microbiology, 2020)
